# What was measured:
# [1] = Irwin test (abnormal spontaneous behavior); format: in vivo, mice; parameters: Wounds / Transfer behavior / Tremor / Gait / Tail elevation / Touch escape / Trunk curl / Righting reflex / Salivation / Extension reflex: scale not given here
# Description: The inventors have tested Compound 1 (FIG. 1A) for its capacity to correct the deficient motor phenotypes and short lifespan in the APBD mouse model Gbe^ys/ys. Compound 1 is one of 19 PG reducing HTS hits previously discovered by the inventors. It was selected by in silico ADMET (Absorption, Distribution, Metabolism, Excretion, and Toxicity) tests run on these hits to predict which of them should be safe and pharmacokinetically and pharmacodynamically preferred and is therefore worth further pursuit (FIG. 8, compound “A”). […] Following 1 h and 24 h treatments, mice were also examined for abnormal spontaneous behavior, such as immobility, excessive running, stereotyped movements, and abnormal posture (Irwin tests).
# Gbe^ys/ys mice = test: Blood metabolic panel in Gbe^ys/ys mice; format: in vivo
# Protocol: FIGS. 3A-3I include a graph of the effect of Compound 1 on in vivo metabolism; mice were monitored by the Promethion High-Definition Behavioral Phenotyping System (Sable Instruments, Inc.) over a 24 hr period. Effective mass was calculated by power of 0.75. Data are mean±SEM from n=11 9 months old mice in the wt. control vehicle arm, n=6 9 months old mice in the GBE^ys/ys vehicle arm and n=7 9 months old mice in the Gbe^ys/ys 144DG11 (Compound 1)-treated arm. All injections were from the age of 4 months. […] Blood metabolic panel based on n=5, 9.5 months old mice treated as indicated (3I). Blood glucose was increased, and blood triglycerides decreased in Gbe^ys/ys […] by Compound 1 (p<0.05, Student's t-tests). *p<0.05 v wt. controls, #p<0.05 v GBE^ys/ys vehicle treated mice;
# The inventors further tested whether Compound 1 is able to correct the hypoglycemia and hyperlipidemia observed in Gbe^ys/ys mice. Such an effect is expected from an agent capable of inducing the catabolism of liver glycogen with an ensuing rise in blood glucose. […] Muscle (creatine kinase) and liver (alanine transferase) functions were not affected by this treatment (FIG. 3I).
# [2] = system: primary human non-small-cell lung cancer (NSCLC) cells; test: LC3, p62 and PAS staining of lung cancer cells; format: cell-based
# Protocol: FIGS. 20A-20B include fluorescent micrographs showing primary non-small cell-lung cancer. Cells were treated and stained for the autophagic substrates LC3 (20A) and p62 (20B) as in 19A-19B.
# NAD+ and NADH are key precursors for the electron transfer chain, TCA cycle, glycolysis, amino acid synthesis, fatty acid synthesis, and nucleotide synthesis. The NAD+/NADH ratio reports the extent of overall catabolism and the balance between glycolysis and OxPhos. The increase in the NAD+/NADH ratio means acceleration of electron flow in the mitochondrial electron transport chain (note, not mitochondrial ATP production) and of glycolysis to better manage metabolic demands. Furthermore, Sirt1 induction, often associated with increased NAD+/NADH ratio, is a well-documented and innovative anti-aging, calorie restriction-mimic and anti-cancer therapeutic strategy (see for example Hyun et al., (2020)). Thus, the results in Gsd1a cells (FIG. 21), showing induction of the NAD+/NADH ratio, as well as Sirt1, indicate that 144DG11 is a promising therapy for a plethora of different metabolic disorders, aging-related complications, and cancer.
compound,measurement,setting,value
COCCN(Cc1sccc1C)C(=O)c1cc(C)nc(O)c1 [Compound 1],Appearance of fur,"[1]; 50 mg/kg, 1 h",2
same,Body position,"[1]; 50 mg/kg, 1 h",3.5
same,Coat color,"[1]; 50 mg/kg, 1 h",Black
same,Extension reflex,"[1]; 50 mg/kg, 1 h",2
same,Gait,"[1]; 50 mg/kg, 1 h",0
same,Patches of missing fur on body,"[1]; 50 mg/kg, 1 h",0
same,Patches of missing fur on face,"[1]; 50 mg/kg, 1 h",0
same,Pelvic elevation,"[1]; 50 mg/kg, 1 h",2
same,Piloerection,"[1]; 50 mg/kg, 1 h",0
same,Positional passivity,"[1]; 50 mg/kg, 1 h",0
same,Presence of whiskers,"[1]; 50 mg/kg, 1 h",3
same,Righting reflex,"[1]; 50 mg/kg, 1 h",0
same,Salivation,"[1]; 50 mg/kg, 1 h",0
same,Tail elevation,"[1]; 50 mg/kg, 1 h",1
same,Touch escape,"[1]; 50 mg/kg, 1 h",2
same,Transfer behavior,"[1]; 50 mg/kg, 1 h",5
same,Tremor,"[1]; 50 mg/kg, 1 h",0
same,Trunk curl,"[1]; 50 mg/kg, 1 h",0
same,Wounds,"[1]; 50 mg/kg, 1 h",0
same,Appearance of fur,"[1]; 50 mg/kg, 24 h",2
same,Body position,"[1]; 50 mg/kg, 24 h",3.5
same,Coat color,"[1]; 50 mg/kg, 24 h",Black
same,Extension reflex,"[1]; 50 mg/kg, 24 h",2
same,Gait,"[1]; 50 mg/kg, 24 h",0
same,Patches of missing fur on body,"[1]; 50 mg/kg, 24 h",0
same,Patches of missing fur on face,"[1]; 50 mg/kg, 24 h",0
same,Pelvic elevation,"[1]; 50 mg/kg, 24 h",2
same,Piloerection,"[1]; 50 mg/kg, 24 h",0
same,Positional passivity,"[1]; 50 mg/kg, 24 h",0
same,Presence of whiskers,"[1]; 50 mg/kg, 24 h",3
same,Righting reflex,"[1]; 50 mg/kg, 24 h",0
same,Salivation,"[1]; 50 mg/kg, 24 h",0
same,Tail elevation,"[1]; 50 mg/kg, 24 h",1
same,Touch escape,"[1]; 50 mg/kg, 24 h",2
same,Transfer behavior,"[1]; 50 mg/kg, 24 h",5
same,Tremor,"[1]; 50 mg/kg, 24 h",0
same,Trunk curl,"[1]; 50 mg/kg, 24 h",0
same,Wounds,"[1]; 50 mg/kg, 24 h",0
same,Appearance of fur,"[1]; 250 mg/kg, 1 h",2
same,Body position,"[1]; 250 mg/kg, 1 h",3
same,Coat color,"[1]; 250 mg/kg, 1 h",Black
same,Extension reflex,"[1]; 250 mg/kg, 1 h",2
same,Gait,"[1]; 250 mg/kg, 1 h",0
same,Patches of missing fur on body,"[1]; 250 mg/kg, 1 h",0
same,Patches of missing fur on face,"[1]; 250 mg/kg, 1 h",0
same,Pelvic elevation,"[1]; 250 mg/kg, 1 h",2
same,Piloerection,"[1]; 250 mg/kg, 1 h",0
same,Positional passivity,"[1]; 250 mg/kg, 1 h",0
same,Presence of whiskers,"[1]; 250 mg/kg, 1 h",3
same,Righting reflex,"[1]; 250 mg/kg, 1 h",0
same,Salivation,"[1]; 250 mg/kg, 1 h",0
same,Tail elevation,"[1]; 250 mg/kg, 1 h",1
same,Touch escape,"[1]; 250 mg/kg, 1 h",2
same,Transfer behavior,"[1]; 250 mg/kg, 1 h",5
same,Tremor,"[1]; 250 mg/kg, 1 h",0
same,Trunk curl,"[1]; 250 mg/kg, 1 h",0
same,Wounds,"[1]; 250 mg/kg, 1 h",0
same,Appearance of fur,"[1]; 250 mg/kg, 24 h",2
same,Body position,"[1]; 250 mg/kg, 24 h",3
same,Coat color,"[1]; 250 mg/kg, 24 h",Black
same,Extension reflex,"[1]; 250 mg/kg, 24 h",2
same,Gait,"[1]; 250 mg/kg, 24 h",0
same,Patches of missing fur on body,"[1]; 250 mg/kg, 24 h",0
same,Patches of missing fur on face,"[1]; 250 mg/kg, 24 h",0
same,Pelvic elevation,"[1]; 250 mg/kg, 24 h",2
same,Piloerection,"[1]; 250 mg/kg, 24 h",0
same,Positional passivity,"[1]; 250 mg/kg, 24 h",0
same,Presence of whiskers,"[1]; 250 mg/kg, 24 h",3
same,Righting reflex,"[1]; 250 mg/kg, 24 h",0
same,Salivation,"[1]; 250 mg/kg, 24 h",0
same,Tail elevation,"[1]; 250 mg/kg, 24 h",1
same,Touch escape,"[1]; 250 mg/kg, 24 h",2
same,Transfer behavior,"[1]; 250 mg/kg, 24 h",5
same,Tremor,"[1]; 250 mg/kg, 24 h",0
same,Trunk curl,"[1]; 250 mg/kg, 24 h",0
same,Wounds,"[1]; 250 mg/kg, 24 h",0
same,adverse effect in Irwin tests,[1]; 1 h and 24 h treatments,did not cause any adverse effect
same,hypoglycemia and hyperlipidemia,Gbe^ys/ys mice; 9.5 months old mice,corrected to control levels
same,muscle (creatine kinase) and liver (alanine transferase) functions,Gbe^ys/ys mice; 9.5 months old mice,not affected
same,blood glucose,"Gbe^ys/ys mice; 9.5 months old, p<0.05",increased
same,blood triglycerides,"Gbe^ys/ys mice; 9.5 months old, p<0.05",decreased
same,"autophagy (LC3, p62)",[2],induced autophagy
same,glycogen levels,[2],did not lower glycogen levels

# Source: patent publication US20240139167A1, “LYSOSOME-ASSOCIATED MEMBRANE PROTEIN TARGETING COMPOUNDS AND USES THEREOF” (HADASIT MEDICAL RESEARCH SERVICES AND DEVELOPMENT LTD., priority 2021, published 2024)
